Laboratory results reported in paper PMC5947727, “Crystal structures of Lymphocytic choriomeningitis virus endonuclease domain complexed with diketo-acid ligands” (IUCrJ, 2018).

Columns and labels:
[1] = target: T1, LCMV endonuclease domain (ENDO, ENDO-WT) (Lymphocytic choriomeningitis virus (strain Armstrong), UniProt P14240, D119A); assay: biochemical; assay type: binding
T1 construct: gene L; N-terminal endonuclease domain of L (residues 1-196), N-terminal hexahistidine tag, pDEST14, E. coli Rosetta (DE3) pLysS; IMAC, Q Sepharose, Superdex 200

[2] = target: T2, LCMV endonuclease domain (ENDO, ENDO-WT) (Lymphocytic choriomeningitis virus (strain Armstrong), UniProt P14240); assay: biochemical; assay type: binding
T2 construct: gene L; N-terminal endonuclease domain of L (residues 1-196), N-terminal hexahistidine tag, pDEST14, E. coli Rosetta (DE3) pLysS; IMAC, Q Sepharose, Superdex 200

| SMILES | Kd [1] [nM] | Kd [2] [nM] |
| --- | --- | --- |
| O=C(O)/C(O)=C/C(=O)C1(Cc2ccc(Cl)cc2)CCN(Cc2ccccc2)CC1 [compound 2, (Z)-4-{1-benzyl-4-[(4-chlorophenyl)methyl]piperidin-4-yl}-2-hydroxy-4-oxobut-2-enoic acid] | 890 ± 60 | 510 ± 110 |
| O=C(O)C(O)=CC(=O)c1ccc(-c2ccccc2)cc1 [compound 3, 2-hydroxy-4-(biphenyl-4-yl)-4-oxobut-2-enoic acid] |  | 50 ± 20 |
| O=C(O)C(=O)CC(=O)c1ccccc1 [compound 1, 2,4-dioxo-4-phenylbutanoic acid] | 18800 ± 3880 | 5380 ± 2060 |
| O=C(O)C(O)=CC(=O)c1ccc2ccc3ccccc3c2c1 [compound 4, 2-hydroxy-4-oxo-4-(phenanthren-3-yl)but-2-enoic acid] |  | 250 ± 70 |
